According to patent US6750232B2, “2-aminopyridine compounds and use thereof as drugs” (Eisai Co., Ltd., priority 2000, dated 2004):

Tests used:
[1] = biological target: T1, human adenosine A1 receptor (Homo sapiens, UniProt P30542); experiment: Measurement of the ability to bind to adenosine A1 receptor (3H-CCPA binding inhibition); settings: membrane of CHOK1 cells expressing human A1 receptor, Cheng-Prusoff
T1 construct: expressed in transfected cells; host or cells: CHOK1 cells (membrane sample)
T1 sequence (P30542 1-326): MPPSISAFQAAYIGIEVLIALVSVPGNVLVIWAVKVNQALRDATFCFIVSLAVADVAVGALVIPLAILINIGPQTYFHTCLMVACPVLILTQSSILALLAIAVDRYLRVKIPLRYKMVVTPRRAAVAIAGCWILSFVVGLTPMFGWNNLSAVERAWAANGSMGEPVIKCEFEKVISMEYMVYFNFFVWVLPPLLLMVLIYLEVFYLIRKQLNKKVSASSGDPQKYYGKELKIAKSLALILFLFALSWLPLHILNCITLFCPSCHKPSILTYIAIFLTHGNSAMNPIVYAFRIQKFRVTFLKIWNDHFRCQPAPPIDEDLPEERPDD
Method: Measurement of the Ability to Bind to Adenosine A1 Receptor
A human adenosine A1 receptor cDNA was expressed in excess in CHOK1 cells, and this membrane sample was added at a protein concentration of 66.7 μg/ml to, and suspended in, 20 mM HEPES buffer, pH 7.4 (10 mM MgCl2, 100 mM NaCl). To 0.45 ml of this membrane sample suspension were added 0.025 ml of 60 nM tritium-labeled chlorocyclopentyl adenosine (^3H—CCPA, from NEN Ltd.) and 0.025 ml test compound. This mixture was left at 30° C. for 120 minutes, filtered rapidly under suction through a glass fiber filter (GF/B, from Whatman), and immediately washed twice with 5 ml of 50 mM water-cooled Tris-HCl buffer. Thereafter, the glass fiber filter was transferred to a vial, a scintillator was added thereto, and the radioactivity on the filter was measured by a liquid scintillation counter. The inhibition of binding of ^3H—CCPA to A1 receptor by the test compound was determined using the following formula, and from this inhibition, 50% inhibition concentration (IC50) was calculated (the following equation).
Inhibition (%)=[1−{binding in the presence of the test compound-non-specific binding)/(total binding-non-specific binding)}]×100
In the above formula, the total binding means ^3H—CCPA-bound radioactivity in the absence of the test compound; the non-specific binding means ^3H—CCPA-bound radioactivity in the presence of 100 μM RPIA ([R]-[1-methyl-2-phenylethyl] adenosine); and the binding in the presence of the test compound means ^3H—CCPA-bound radioactivity in the presence of the test compound at predetermined concentrations. The inhibition constant (Ki value) in the table was determined from the formula of Cheng-Prusoff.

adenosine A2a receptor = biological target: T2, adenosine A2a receptor (Homo sapiens, UniProt P29274); experiment: Measurement of the ability to bind to adenosine A2a receptor (3H-CGS21680 binding inhibition); settings: A2a receptor membrane sample, 3H-CGS21680, Cheng-Prusoff
T2 construct: purchased Receptor Biology Inc
T2 sequence (P29274 whole entry): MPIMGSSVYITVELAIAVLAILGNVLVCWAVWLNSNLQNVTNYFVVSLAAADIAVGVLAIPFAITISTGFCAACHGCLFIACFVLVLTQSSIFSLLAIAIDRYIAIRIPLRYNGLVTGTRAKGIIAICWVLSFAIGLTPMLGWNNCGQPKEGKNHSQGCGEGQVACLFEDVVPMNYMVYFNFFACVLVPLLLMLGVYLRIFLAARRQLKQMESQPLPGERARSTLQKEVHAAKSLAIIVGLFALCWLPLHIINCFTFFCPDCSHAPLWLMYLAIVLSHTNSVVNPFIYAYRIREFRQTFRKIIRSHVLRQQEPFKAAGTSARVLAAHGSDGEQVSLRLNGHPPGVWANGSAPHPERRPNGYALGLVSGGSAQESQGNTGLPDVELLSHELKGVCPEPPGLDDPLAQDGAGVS
Method: Measurement of the Ability to Bind to Adenosine A2a Receptor
An experiment of inhibition of binding to adenosine A2a receptor was conducted using a membrane sample (Receptor Biology Inc.) where an adenosine A2a receptor cDNA was expressed in excess. This membrane sample was added at a protein concentration of 22.2 μg/ml to, and suspended in, 20 mM HEPES buffer, pH 7.4 (10 mM MgCl2 and 100 mM NaCl). To 0.45 ml of this membrane sample suspension were added 0.025 ml of 500 nM tritium-labeled 2-p-[2-carboxyethyl]phenetylamino-5′-N-ethylarboxyamide adenosine (^3H—CGS21680, from NEN) and 0.025 ml test compound. This mixture was left at 25° C. for 90 minutes, filtered rapidly under suction through a glass fiber filter (GF/B, from Whatman), and immediately washed twice with 5 ml of 50 mM water-cooled Tris-HCl buffer. Thereafter, the glass fiber filter was transferred to a vial, a scintillator was added thereto, and the radioactivity on the filter was measured by a liquid scintillation counter. The inhibition of binding of ^3H—CGS21680 to A2a receptor by the test compound was determined using the following formula, and from this inhibition, 50% inhibition concentration (IC50) was calculated.
Inhibition (%)=[1−{binding in the presence of the test compound-nonspecific binding)/(total binding-nonspecific binding)}]×100
Here, the total binding means ^3H—CGS21680-bound radioactivity in the absence of the test compound; the nonspecific binding means ^3H—CGS21680-bound radioactivity in the presence of 100 μM RPIA; and the binding in the presence of the test compound means ^3H—CGS21680-bound radioactivity in the […] of the test compound at predetermined concentrations. The inhibition constant (Ki value) in the table was determined from the formula of Cheng-Prusoff.

[2] = biological target: T3, human adenosine A2b receptor (Homo sapiens, UniProt P29275); experiment: Inhibition of NECA-stimulated production of cAMP in adenosine A2b receptor-expressing cells; assay type: cell-based; settings: CHOK1 cells expressing human A2b receptor, 30 nM NECA
T3 construct: expressed in transfected cells; host or cells: CHOK1 cells
T3 sequence (P29275 1-332): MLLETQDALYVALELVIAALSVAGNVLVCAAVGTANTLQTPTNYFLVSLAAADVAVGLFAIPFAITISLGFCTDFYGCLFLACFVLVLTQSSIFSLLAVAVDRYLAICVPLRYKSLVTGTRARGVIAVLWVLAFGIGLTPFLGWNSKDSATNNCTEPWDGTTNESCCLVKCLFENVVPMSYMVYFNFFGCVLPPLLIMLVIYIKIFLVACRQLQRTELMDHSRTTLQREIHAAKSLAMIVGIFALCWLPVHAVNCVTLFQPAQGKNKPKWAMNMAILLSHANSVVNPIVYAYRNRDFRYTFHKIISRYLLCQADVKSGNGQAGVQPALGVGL
Method: Experiment of Inhibition of NECA-stimulated Production of cAMP in Adenosine A2b Receptor-expressing Cells
CHOK1 cells where a human adenosine A2b receptor had been expressed in excess were plated onto a 24-well plate at a density of 1.5×10^5 cells/well, cultured overnight, and used in the experiment. The degree of inhibitory effect of the test compound on the amount of cAMP produced by stimulation with 30 nM 5′-N-ethylcarboxyamide adenosine (NECA from Sigma) was evaluated in terms of affinity for A2b receptor. That is, the adhering cells were washed twice with 2 ml/well Krebs-Ringer buffer solution (containing 0.1% BSA; pH 7.4) and pre-incubated for 30 minutes in a volume of 0.5 ml/well. Then, a mixed solution containing NECA and the test compound was added in a volume of 0.1 ml/well in the presence of a phosphodiesterase inhibitor Ro-20-1724 (a product of RBI). After pre-incubation for 15 minutes, the reaction was terminated with 0.1 N HCl in a volume of 300 μl/well. Measurement of intracellular cAMP was carried out using a cAMP enzyme immunoassay kit produced by Amersham. The inhibition of NECA-stimulated production of cAMP by the test compound was determined using the following equation:
Inhibition (%)=[1−{(amount of cAMP in the coexistence of NECA and the test compound-amount of CAMP in only the Krebs-Ringer buffer solution)/(amount of CAMP upon stimulation with NECA only-amount of cAMP in only the Krebs-Ringer buffer solution)}]×100

SD IGS rats = experiment: Evaluation of defecation-promoting action; assay type: in vivo, rat; settings: oral, 90 minutes after administration, per cage
Excerpt: Evaluation of Defecation-Promoting Action
The defecation-promoting action of the adenosine A2b receptor-inhibiting compound which was identified by measuring the binding ability and inhibitory ability thereof to the adenosine receptor in Test Example 1, a salt thereof, a hydrate of them, or a pharmaceutical composition containing it can be evaluated on the basis of the following method. That is, SD IGS rats (6 weeks-old, from Charles River) were placed in cages (3 animals/cage) and preliminarily allowed food and water ad libitum and raised for 1 week. Then, a tared water-absorbing sheet was placed below each cage, and the animals were fasted but allowed water ad libitum throughout the experiment. After 1.5 hours, the fecal pellets were recovered from each cage and observed for abnormality before the experiment. The compound suspended or dissolved in 0.5% (w/v) methyl cellulose (MC) was orally administered in a dose of 5 ml/kg. On one hand, 0.5% (w/v) MC only was orally given to the control group. After administration of the compound, the rats were returned to the cage provided with a new water-absorbing sheet, and 90 minutes after the administration, the fecal pellets on the water-absorbing sheet were recovered from each cage, and the external appearance was observed, and then counted and weighed. The number of fecal pellets is expressed per each cage. After the fecal pellets were recovered, the water-absorbing sheet was weighed, and the weight determined by subtracting the initial weight of the water-adsorbing sheet from the weight after the experiment was regarded as the volume of urine.

Compound	Ki [1] [nM]	Ki (adenosine A2a receptor) [nM]	IC50 [2] [nM]	The number of fecal pellets (SD IGS rats; 1 mg/kg)	The number of fecal pellets (SD IGS rats; 10 mg/kg)	The number of fecal pellets (SD IGS rats; 3 mg/kg)
2-Amino-6-(fluorophenyl)-5-(4-pyridyl)-3-pyridinecarbonitrile [Example 2]	66	22	3.7	7.80 ± 0.20	18.00 ± 1.30	
N#Cc1cc(-c2ccncc2)c(-c2ccco2)nc1N [Example 1, 2-Amino-6-(2-furyl)-5-(4-pyridyl)-3-pyridinecarbonitrile]	990	23	2.7	1.75 ± 1.03	22.25 ± 2.93	7.25 ± 1.65
CCn1cc(-c2cc(C#N)c(N)nc2-c2ccco2)ccc1=O [Example 5, 2-Amino-5-(1-ethyl-6-oxo-1,6-dihydro-3-pyridinyl)-6-(2-furyl)nicotinonitrile]	400	7	6.5	7.00 ± 1.23		14.25 ± 3.38
